Assay results published in ChEMBL document CHEMBL5042524, “Discovery of Novel Histone Deacetylase 6 (HDAC6) Inhibitors with Enhanced Antitumor Immunity of Anti-PD-L1 Immunotherapy in Melanoma” (J Med Chem, 2022).

Tests used:
[1] = molecular target: Histone deacetylase 3 (Homo sapiens, UniProt O15379); assay: Inhibition of recombinant human His-tagged HDAC3 expressed in baculovirus insect cells using Ac-Leu-Gly-Lys (Ac)-AMC as substrate preincubated for 5 mins followed by substrate addition and measured after 30 mins by fluorescence microtiter plate reader assay
[2] = molecular target: T1, Protein deacetylase HDAC6 (Homo sapiens, UniProt Q9UBN7); assay: Inhibition of recombinant human N-terminal GST tagged HDAC6 expressed in baculovirus infected Sf9 insect cells using Ac-Leu-Gly-Lys (Ac)-AMC as substrate preincubated for 5 mins followed by substrate addition and measured after 30 mins by fluorescence microtiter plate reader assay
T1 sequence (Q9UBN7 whole entry): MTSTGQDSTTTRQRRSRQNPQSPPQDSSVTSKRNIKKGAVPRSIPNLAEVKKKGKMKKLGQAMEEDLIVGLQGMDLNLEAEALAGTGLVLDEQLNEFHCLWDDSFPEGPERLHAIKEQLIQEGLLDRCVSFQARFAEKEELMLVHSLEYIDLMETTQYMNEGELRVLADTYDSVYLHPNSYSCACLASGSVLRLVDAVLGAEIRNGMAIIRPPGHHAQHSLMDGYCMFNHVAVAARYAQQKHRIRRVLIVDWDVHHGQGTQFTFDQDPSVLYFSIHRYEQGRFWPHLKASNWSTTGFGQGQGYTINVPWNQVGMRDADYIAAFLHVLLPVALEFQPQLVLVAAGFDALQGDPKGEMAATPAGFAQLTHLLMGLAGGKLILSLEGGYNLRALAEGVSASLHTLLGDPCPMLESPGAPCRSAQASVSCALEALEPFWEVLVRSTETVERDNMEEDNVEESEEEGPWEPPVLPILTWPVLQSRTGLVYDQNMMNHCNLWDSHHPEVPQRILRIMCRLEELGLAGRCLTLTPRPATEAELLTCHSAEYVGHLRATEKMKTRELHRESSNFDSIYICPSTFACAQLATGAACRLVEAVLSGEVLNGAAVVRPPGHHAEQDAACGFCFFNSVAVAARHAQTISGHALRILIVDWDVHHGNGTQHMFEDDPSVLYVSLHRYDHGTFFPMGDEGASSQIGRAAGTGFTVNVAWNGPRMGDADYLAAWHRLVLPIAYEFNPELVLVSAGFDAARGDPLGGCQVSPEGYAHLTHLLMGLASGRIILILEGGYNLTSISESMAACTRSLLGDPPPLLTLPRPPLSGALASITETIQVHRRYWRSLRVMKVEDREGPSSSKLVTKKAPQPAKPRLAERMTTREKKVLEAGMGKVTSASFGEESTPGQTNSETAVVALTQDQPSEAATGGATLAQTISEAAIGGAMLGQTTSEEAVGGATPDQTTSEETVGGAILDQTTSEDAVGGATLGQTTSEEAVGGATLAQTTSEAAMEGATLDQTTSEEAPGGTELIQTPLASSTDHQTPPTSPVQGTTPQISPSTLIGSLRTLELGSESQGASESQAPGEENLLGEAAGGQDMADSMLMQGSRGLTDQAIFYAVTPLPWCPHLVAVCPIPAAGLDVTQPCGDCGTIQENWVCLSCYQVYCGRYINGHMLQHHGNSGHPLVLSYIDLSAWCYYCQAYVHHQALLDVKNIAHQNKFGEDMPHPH

[3] = molecular target: Histone deacetylase; assay: Inhibition of HDAC in human HeLa nuclear extracts using fluorometric substrate incubated for 30 mins by fluorescence plate reader analysis; format: cell-based
[4] = Antiproliferative activity against human YCC3/7 cells assessed as cell growth inhibition; format: functional, cell-based
[5] = Cytotoxicity against human Jurkat cells assessed as reduction in cell viability incubated for 72 hrs by CCK-8 assay
[6] = test system: HCT-116; assay: cells; format: functional, cell-based; details: Homo sapiens, HCT-116, 48 h
Description: Antiproliferative activity against human HCT-116 cells assessed as inhibition of cell proliferation measured after 48 hrs by MTT assay

[7] = molecular target: Histone deacetylase 1 (Homo sapiens, UniProt Q13547); assay: Inhibition of recombinant human HDAC1 expressed in baculovirus expression system using Ac-Leu-Gly-Lys (Ac)-AMC as substrate preincubated for 5 mins followed by substrate addition and measured after 30 mins by fluorescence microtiter plate reader assay
[8] = molecular target: T2, Histone deacetylase 8 (Homo sapiens, UniProt Q9BY41); assay: Inhibition of full length recombinant human C-terminal His tagged HDAC8 expressed in baculovirus infected Sf9 insect cells using Ac-Leu-GlyLys (Tfa)-AMC as substrate preincubated for 5 mins followed by substrate addition and measured after 30 mins by fluorescence microtiter plate reader assay
T2 sequence (Q9BY41 whole entry): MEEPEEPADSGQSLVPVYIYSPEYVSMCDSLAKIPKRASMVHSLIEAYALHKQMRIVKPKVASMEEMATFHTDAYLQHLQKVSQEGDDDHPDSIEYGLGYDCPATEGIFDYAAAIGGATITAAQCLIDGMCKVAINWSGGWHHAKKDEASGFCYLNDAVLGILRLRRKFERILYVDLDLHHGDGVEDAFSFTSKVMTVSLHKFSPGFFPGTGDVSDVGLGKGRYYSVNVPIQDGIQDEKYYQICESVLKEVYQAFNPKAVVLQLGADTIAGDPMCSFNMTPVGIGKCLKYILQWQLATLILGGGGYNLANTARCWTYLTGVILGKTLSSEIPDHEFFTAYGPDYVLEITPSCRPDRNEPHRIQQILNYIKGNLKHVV

[9] = test system: MCF7; assay: cells; format: functional, cell-based; details: Homo sapiens, MCF7, 48 h
Description: Antiproliferative activity against human MCF7 cells assessed as inhibition of cell proliferation measured after 48 hrs by MTT assay

[10] = test system: B16-F10; assay: cells; format: functional, cell-based; details: Mus musculus, B16-F10, 48 h
Description: Antiproliferative activity against mouse B16-F10 cells assessed as inhibition of cell proliferation measured after 48 hrs by MTT assay

[11] = test system: A549; assay: cells; format: functional, cell-based; details: Homo sapiens, A549, 48 h
Description: Antiproliferative activity against human A549 cells assessed as inhibition of cell proliferation measured after 48 hrs by MTT assay

[12] = Antiproliferative activity against human YCC-11 cells assessed as cell growth inhibition; format: functional, cell-based

Histone deacetylase 3, sequence (O15379 whole entry): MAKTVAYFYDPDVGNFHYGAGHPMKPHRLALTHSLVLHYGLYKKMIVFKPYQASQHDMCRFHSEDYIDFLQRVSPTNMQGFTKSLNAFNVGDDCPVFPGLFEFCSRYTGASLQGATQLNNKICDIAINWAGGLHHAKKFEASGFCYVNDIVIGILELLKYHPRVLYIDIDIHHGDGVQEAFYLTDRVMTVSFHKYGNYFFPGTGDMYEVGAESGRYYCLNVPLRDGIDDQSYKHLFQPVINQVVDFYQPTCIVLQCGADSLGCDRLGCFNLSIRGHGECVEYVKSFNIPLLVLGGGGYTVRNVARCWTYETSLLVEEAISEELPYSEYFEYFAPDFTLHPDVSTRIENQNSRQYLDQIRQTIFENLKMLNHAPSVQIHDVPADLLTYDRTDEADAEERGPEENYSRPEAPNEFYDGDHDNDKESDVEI
Histone deacetylase 1, sequence (Q13547 whole entry): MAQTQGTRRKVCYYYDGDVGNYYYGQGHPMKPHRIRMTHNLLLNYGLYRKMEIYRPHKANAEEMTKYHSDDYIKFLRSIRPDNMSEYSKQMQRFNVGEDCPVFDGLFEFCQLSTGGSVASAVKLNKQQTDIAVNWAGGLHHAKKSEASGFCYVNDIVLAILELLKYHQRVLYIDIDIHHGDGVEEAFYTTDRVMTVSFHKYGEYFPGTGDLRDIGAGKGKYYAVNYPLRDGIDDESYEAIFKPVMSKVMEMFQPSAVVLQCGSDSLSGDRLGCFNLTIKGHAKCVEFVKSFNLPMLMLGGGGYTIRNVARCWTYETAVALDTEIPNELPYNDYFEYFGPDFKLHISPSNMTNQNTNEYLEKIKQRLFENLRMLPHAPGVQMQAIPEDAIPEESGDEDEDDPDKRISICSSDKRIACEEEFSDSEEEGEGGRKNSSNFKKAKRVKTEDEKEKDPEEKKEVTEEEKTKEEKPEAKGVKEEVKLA

| Structure (SMILES) | IC50 [1] [µM] | IC50 [2] [µM] | IC50 [3] [µM] | IC50 [4] [µM] | IC50 at 72 h [5] [µM] | IC50 [6] [µM] | IC50 [7] [µM] | IC50 [8] [µM] | IC50 [9] [µM] | IC50 [10] [µM] | IC50 [11] [µM] | IC50 [12] [µM] |
| --- | --- | --- | --- | --- | --- | --- | --- | --- | --- | --- | --- | --- |
| Nc1ccccc1NC(=O)/C=C/c1cnc(-c2ccc3cc[nH]c3c2)s1 | 2.03 | > 10 | 0.63 |  |  |  |  |  |  |  |  |  |
| O=C(CCCCCCNC(=O)c1cnc(-c2ccc(F)cc2)s1)NO |  |  | 1.02 |  |  |  |  |  |  |  |  |  |
| COc1cccc(-c2ncc(C(=O)NCCCCCCC(=O)NO)s2)c1 | 9.27 | 0.59 | 0.44 | 1.56 | 0.33 | 0.93 | 3.93 | 15.2 | 1.9 | 3.52 | 6.03 | 1.3 |
| COc1ccc(-c2ncc(C(=O)NCCCCC(=O)NO)s2)c(OC)c1 | 9.91 | 0.62 | 0.69 |  |  |  |  |  |  |  |  |  |
| COc1ccc(-c2ncc(/C=C/C(=O)NO)s2)c(OC)c1OC | 6.23 | 1.09 | 0.11 | 8.17 | 0.59 | 3.27 | 5.03 | 2.56 | 4.78 | > 10 | > 10 | 3.77 |
| O=C(/C=C/c1cnc(-c2ccc(N3CCOCC3)cc2)s1)NO | > 10 | 0.97 | 0.55 |  |  |  |  |  |  |  |  |  |
| COc1cc(-c2ncc(C(=O)NCCCCCCC(=O)NO)s2)cc(OC)c1OC | > 10 | 0.8 | 0.67 |  |  |  |  |  |  |  |  |  |
| COc1cc(-c2ncc(/C=C/C(=O)Nc3ccccc3N)s2)cc(OC)c1OC | 2.98 | 9.33 | 0.08 | 3.03 | 0.58 | 1.65 | 9.79 | 14.2 | 2.54 | 7.62 | > 10 | 1.65 |
| COc1ccc(-c2ncc(C(=O)NCCCC(=O)NO)s2)c(OC)c1 |  |  | 0.73 |  |  |  |  |  |  |  |  |  |
| COc1ccc(-c2ncc(C(=O)NCCCCCC(=O)NO)s2)c(OC)c1 | 12.4 | 0.076 | 0.35 | 8.73 | 1.72 | 2.19 | 11.2 | 19.8 | 2.81 | 2.94 | 6.71 | 6.52 |
| O=C(/C=C/c1cnc(-c2ccc3c(c2)OCO3)s1)NO |  |  | 0.89 |  |  |  |  |  |  |  |  |  |
| O=C(CCCCCCNC(=O)c1cnc(-c2ccc(Cl)cc2)s1)NO |  |  | 0.96 |  |  |  |  |  |  |  |  |  |
| Nc1ccccc1NC(=O)c1ccc(CNC(=O)OCc2cccnc2)cc1 [ENTINOSTAT] |  |  |  | 12.9 |  |  |  |  |  |  |  | 5.53 |
| Cc1cccc(-c2ncc(/C=C/C(=O)Nc3ccccc3N)s2)c1 |  |  | 0.81 |  |  |  |  |  |  |  |  |  |
| COc1cc(OC)cc(-c2ncc(C(=O)NCCCCCCC(=O)NO)s2)c1 | 9.09 | 0.76 | 0.79 |  |  |  |  |  |  |  |  |  |
| O=C(/C=C/c1cnc(-c2ccc(F)cc2F)s1)NO |  |  | 0.94 |  |  |  |  |  |  |  |  |  |

| Structure (SMILES) | IC50 [1] [µM] | IC50 [2] [µM] | IC50 [3] [µM] | IC50 [4] [µM] | IC50 at 72 h [5] [µM] | IC50 [6] [µM] | IC50 [7] [µM] | IC50 [8] [µM] | IC50 [9] [µM] | IC50 [10] [µM] | IC50 [11] [µM] | IC50 [12] [µM] |
| --- | --- | --- | --- | --- | --- | --- | --- | --- | --- | --- | --- | --- |
| COc1ccccc1-c1ncc(C(=O)NCCCCCCC(=O)NO)s1 | 6.49 | 0.65 | 0.27 | 6.68 | 0.35 | 0.91 | 5.13 | 10.2 | 1.93 | > 10 | 5.04 | 2.69 |
| COc1ccc(-c2ncc(C(=O)NCCCCCCC(=O)NO)s2)cc1 | > 10 | 0.61 | 0.71 |  |  |  |  |  |  |  |  |  |
| COc1ccc(-c2ncc(/C=C/C(=O)Nc3ccccc3N)s2)cc1 | 1.79 | > 10 | 0.71 |  |  |  |  |  |  |  |  |  |
| COc1cc(-c2ncc(/C=C/C(=O)NO)s2)cc(OC)c1OC | 7.66 | 2.1 | 0.1 | 5.18 | 0.36 | 1.82 | 3.21 | 2.22 | 1.3 | 5.09 | 3.08 | 4.8 |
| Cc1ccc(-c2ncc(/C=C/C(=O)Nc3ccccc3N)s2)cc1 | 1.03 | > 10 | 0.66 |  |  |  |  |  |  |  |  |  |
| CC(C)(C)OC(=O)Nc1ccc(-c2ncc(C(=O)NCCCCCCC(=O)NO)s2)cc1 | 5.88 | 0.067 | 0.29 | 10.1 | 1.34 | 2.88 | 9.32 | 5.22 | > 10 | > 10 | > 10 | 2.09 |
| COc1cccc(-c2ncc(/C=C/C(=O)Nc3ccccc3N)s2)c1 | 4.87 | 9.53 | 0.58 | 9.91 | 0.56 | 3.91 | 13.5 | 13.4 | 6.05 | > 10 | 7.64 | 8.56 |
| COc1cc(OC)cc(-c2ncc(/C=C/C(=O)NO)s2)c1 | > 10 | 0.94 | 0.72 |  |  |  |  |  |  |  |  |  |
| COc1ccc(-c2ncc(/C=C/C(=O)Nc3ccccc3N)s2)c(OC)c1OC | 1.55 | > 10 | 0.63 |  |  |  |  |  |  |  |  |  |
| COc1ccc(-c2ncc(/C=C/C(=O)Nc3ccccc3N)s2)cc1OC | 2.22 | 8.81 | 0.53 | 6.28 | 0.34 | 1.8 | 10.4 | 11.5 | 3.05 | 6.37 | 5.24 | 4.59 |
| O=C(CCCCCCNC(=O)c1cnc(-c2ccc(OC(F)(F)F)cc2)s1)NO | 8.07 | 0.71 | 0.7 |  |  |  |  |  |  |  |  |  |
| COc1cccc(-c2ncc(/C=C/C(=O)NO)s2)c1 |  |  | 0.66 |  |  |  |  |  |  |  |  |  |
| O=C(/C=C/c1cnc(-c2ccc3c(c2)OCCO3)s1)NO | > 10 | 0.77 | 0.68 |  |  |  |  |  |  |  |  |  |
| COc1ccc(-c2ncc(/C=C/C(=O)NO)s2)cc1 | 5.11 | 0.91 | 0.13 | 4.21 | 0.74 | 4.12 | 4.34 | 3.74 | 5.36 | > 10 | > 10 | 3.07 |
| O=C(CCCCCCNC(=O)c1cnc(-c2ccc(Oc3ccccc3)cc2)s1)NO |  |  | 0.8 |  |  |  |  |  |  |  |  |  |
